Reference: article PMC3781034, “A Small-Animal Pharmacokinetic/Pharmacodynamic PET Study of Central Serotonin 1A Receptor Occupancy by a Potential Therapeutic Agent for Overactive Bladder” (PLoS ONE, 2013)
Like-named read-outs stand apart in the source and are kept apart here.

What was measured:
[1] = molecular target: T1, CYP3A4 (Homo sapiens, UniProt P08684); assay: Metabolism in human liver microsomes; type: in vitro ADME; settings: unpublished results
T1 construct: from tissue; host or cells: human liver microsomes
T1 sequence (P08684 whole entry): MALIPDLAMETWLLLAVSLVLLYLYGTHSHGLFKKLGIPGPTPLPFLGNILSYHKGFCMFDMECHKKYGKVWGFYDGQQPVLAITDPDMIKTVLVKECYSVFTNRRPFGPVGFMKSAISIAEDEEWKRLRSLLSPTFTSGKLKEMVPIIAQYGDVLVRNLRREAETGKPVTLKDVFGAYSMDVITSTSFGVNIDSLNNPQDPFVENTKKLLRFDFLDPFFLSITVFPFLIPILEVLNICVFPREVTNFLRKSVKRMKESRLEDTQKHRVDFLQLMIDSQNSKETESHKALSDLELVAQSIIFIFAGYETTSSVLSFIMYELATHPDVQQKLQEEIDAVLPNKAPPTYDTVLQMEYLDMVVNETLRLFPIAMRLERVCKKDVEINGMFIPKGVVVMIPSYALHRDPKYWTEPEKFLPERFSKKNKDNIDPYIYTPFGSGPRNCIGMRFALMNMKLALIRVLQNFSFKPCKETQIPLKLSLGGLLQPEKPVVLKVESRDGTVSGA

[2] = molecular target: T2, 5-HT1A receptors (Rattus norvegicus, UniProt P19327); assay: PET 5-HT1A receptor occupancy, time-course study (effect compartment model); type: in vivo, Sprague-Dawley rat; settings: for EC50: time-course study
T2 construct: occupancy of 5-HT1A receptors in living Sprague-Dawley rat brains; from tissue; host or cells: living Sprague-Dawley rat brain (medial prefrontal cortex, dorsal raphe nucleus), in vivo PET
T2 sequence (P19327 1-422): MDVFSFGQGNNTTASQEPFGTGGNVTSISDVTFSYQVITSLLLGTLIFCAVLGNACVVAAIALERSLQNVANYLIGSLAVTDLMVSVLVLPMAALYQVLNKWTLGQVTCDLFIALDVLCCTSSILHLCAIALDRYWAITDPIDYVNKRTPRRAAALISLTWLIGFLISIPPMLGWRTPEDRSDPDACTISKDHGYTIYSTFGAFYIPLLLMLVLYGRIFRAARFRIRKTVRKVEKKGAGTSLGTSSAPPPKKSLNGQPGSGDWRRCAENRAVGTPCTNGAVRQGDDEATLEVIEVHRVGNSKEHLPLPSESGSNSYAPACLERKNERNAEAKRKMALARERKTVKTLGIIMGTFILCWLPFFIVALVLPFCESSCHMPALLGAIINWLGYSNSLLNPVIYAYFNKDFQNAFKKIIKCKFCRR
Method: All PET scans for rats were performed with a small animal-dedicated microPET FOCUS 220 system (Siemens Medical Solutions USA, Knoxville, TN, USA), which yields a 25.8 cm (transaxial) × 7.6 cm (axial) field of view (FOV) and a spatial resolution of 1.3 mm full width at half maximum at the center of FOV [8]. The rats were anesthetized with 1.5-2% isoflurane in air (2 L/min flow rate). Their body temperature was controlled using homeothermic controller and plate with a rectal probe, and their heart rates and arterial oxygen saturations were continuously measured by a pulse oximeter (CANL-425SVA; Med Associates, St. Albans, VT, USA). We also monitored respiration rates of these animals with a custom-made monitoring system (Nagano Electronics, Hitachinaka, Japan). A 20-min transmission scan for attenuation correction was performed using a spiraling ^68Ge-^68Ga point source. Subsequently, list-mode scans were carried out for 90 min. All list-mode data were sorted and Fourier rebinned into two-dimensional sinograms (frames: 4 × 1, 8 × 2, and 14 × 5 min). Images were thereafter reconstructed using two-dimensional filtered back-projection with a 0.5-mm Hanning filter. [^11C]-WAY-100635 was injected via the tail vein as a single bolus at the start of emission scanning. The injected dose of the radiotracer was 85.3 ± 28.6 MBq/rat (mean ± SD).
Anatomical regions of interest (ROIs) were placed on the medial prefrontal cortex (MPFC) and dorsal raphe nucleus (DRN) using PMOD® image software (PMOD Group, Zurich, Switzerland) with reference to the MRI template. Radioligand binding was examined by calculating the binding potential (BP ND; ratio at equilibrium of specifically-bound radioligand to that of nondisplaceable radioligand in tissue) based on a simplified reference tissue model (SRTM) using the cerebellar time-radioactivity curve as reference.
Occupancy of 5-HT1A receptors by E2110 was calculated using the following equation:
RO(%)=BPND,baseline−BPND,drug/BPND,baseline×100 (2)
where BP ND, baseline and BP ND, drug are estimated BP ND at baseline and following drug administration, respectively.
To examine the dose-RO relationship at a single time point, four male SD rats, which had undergone a baseline PET imaging in advance, were scanned with PET at 4 hours after being pretreated with 4 oral doses (0.3, 1, 3, 10 mg/kg) of E2110. In this assay, approximately 250 µL of blood samples were collected from the tail vein upon initiation of the scan for quantification of plasma concentration of E2110. We further examined RO at different time points after the drug administration by conducting PET scans of four male SD rats at 2, 4, 6 or 8 hours after pretreatment with a single oral dose of 1 mg/kg E2110. In addition to this series of PET assays for male rats, pilot PET scans for female rats (n = 3) were carried out at baseline and 4 hours after oral administration of 0.1 mg/kg E2110 to examine whether relationships between plasma concentration of E2110 and RO by this drug in the brain are consistent between two genders. In all experiments, scans for the same individual receiving E2110 were conducted more than 1 week apart.
The effect compartment model is illustrated in Figure 2. The mean plasma concentration profile of E2110 in each of four rats was fitted by two-compartment model with first order absorption and elimination. A sigmoid Emax model (Equation 4) based on the concentration in the effect compartment was fitted to the PD (RO) data. PK and PD models were linked using an effect compartment model described by the following equation: […]
where Cp and Ce are concentrations of E2110 in the plasma and effect compartments, respectively, and ke0 represents the equilibration rate constant for the effect compartment. PK and PD parameters were estimated by using […] (Version 2.01, MicroMath Research, UT, USA).

[3] = system: micturition interval; assay: 5-HT1A receptor agonist (8-OH-DPAT)-induced model of OAB, cystometry; type: in vivo, female SD rats
Method: Catheter implantations and cystometric investigations were performed based on the reported method [14]. Briefly, on the day before the cystometric experiment, female SD rats were initially anesthetized with pentobarbital (50 mg/kg ip). Catheters were inserted into the femoral vein, the dome of the stomach and the dome of the bladder. In the cystometric study, the bladder catheter was connected to an infusion pump and a pressure transducer (DX-312; Nihon Kohden Co., Tokyo, Japan) by three-way stopcock. Saline was infused into the bladder and femoral vein. After bladder pressure was stabilized, 8-OH-DPAT (0.06 mg/kg/h) was infused into the femoral vein instead of saline. Bladder pressure was monitored with a pressure transducer and a pressure amplifier (AP-601G; Nihon Kohden), and recorded on a pen recorder (WT-645G; Nihon Kohden). The following three micturition intervals (i.e., intervals between consecutive peaks of bladder pressure induced at the time of bladder content evacuation) were obtained: (1) basal micturition interval (intervals before 8-OH-DPAT administration), (2) pre-administration micturition interval, (intervals immediately before administration of E2110 or vehicle), and (3) post-administration micturition interval (intervals observed between 1 and 2 hr after administration of E2110 or vehicle). […] E2110 (0.03, 0.1 or 0.3 mg/kg) or vehicle was administered to four groups of eight conscious rats orally.
Data are expressed as mean ± standard error of mean (S.E.M). In the pharmacological study, the statistical significance of differences between the vehicle- and E2110-treated groups was tested using one-way analysis of variance (ANOVA) followed by Dunnett’s multiple comparison test. A probability (p) value of <0.05 (two-sided) was considered statistically significant. All statistical analyses were performed using the SAS software package version 8.1 or 8.2 (SAS Institute Japan Ltd., Tokyo, Japan).

[4] = system: P-glycoprotein; assay: Brain-to-plasma ratio in Mdr1a/1b-knockout vs wild-type mice; type: in vivo; settings: rodents, BBB drug transporter; data not shown

CNC(=O)c1ccc2ccn(C3CCN(CCc4c(OC)ccc5c4OC(C)(C)CC5=O)CC3)c2c1.O=C(O)/C=C/C(=O)O [E2110, 1-{1-[2-(7-Methoxy-2,2-dimethyl-4-oxochroman-8-yl)ethyl]piperidine-4-yl}-N-methyl-1H-indole-6-carboxamide fumarate]
metabolizing enzyme [1]: primarily metabolized by CYP3A4
EC50 ([2]; DRN, 1 mg/kg oral, male SD rats, effect compartment model, read-out: EC50 for occupancy of 5-HT1A receptors (converted)): 7.38 nM
EC50 ([2]; DRN, effect compartment model, read-out: EC50 for occupancy of 5-HT1A receptors (converted)): 5.94 nM
EC50 ([2]; DRN, read-out: EC50 for 5-HT1A RO, value in parentheses (free concentration-based)): 0.44 nM
EC50 ([2]; MPFC, 1 mg/kg oral, male SD rats, effect compartment model, read-out: EC50 for occupancy of 5-HT1A receptors (converted)): 5.85 nM
EC50 ([2]; MPFC, effect compartment model, read-out: EC50 for occupancy of 5-HT1A receptors (converted)): 4.74 nM
EC50 ([2]; MPFC, read-out: EC50 for 5-HT1A RO, value in parentheses (free concentration-based)): 0.35 nM
half-life ([2]; Sprague-Dawley, rat, effect compartment model, 1 mg/kg oral, male SD rats, read-out: CNS equilibration t1/2 (from ke0) (converted)): 1.4 h
5-HT1A RO measured by PET versus simulated RO ([2]; female rats, 4 hours after oral 0.1 mg/kg, pilot study n = 3): in good agreement with calculated data
minimum dose exerting overt therapeutic effects on the micturition reflex ([3]; 8-OH-DPAT model, oral): 0.1 mg/kg
effect on micturition interval ([3]; oral 0.1-0.3 mg/kg, 8-OH-DPAT-infused female SD rats, 1-2 hr after administration): significantly (p < 0.05) prolonged the micturition intervals
P-glycoprotein substrate status [4]: substrate for the BBB drug transporter P-glycoprotein
